Ends that are not written are not given here.
Target: T1, vitronectin-bound PAI-1 (Homo sapiens, UniProt P05121)
T1 construct: made in house; host or cells: E. coli (PAI-1); vitronectin a gift
Assay: PAI-1 activity assay in the presence of vitronectin
Type: biochemical
Settings: for T1/2 of vitronectin-bound PAI-1: PAI-1 0.7 μM with vitronectin 1.7 μM, 37° C., 190±12 minutes without peptide
Method: PAI-1 (0.7 μM) was incubated at 37° C. with either P1-P14 peptide or control peptide (55 μM) in 0.1M HEPES, 0.1M NACl, 0.1% PEG (MW 8000), pH 7.4 (assay buffer). At timed intervals 0-110 minutes), 5 μL of the PAI-1:peptide mixture was added to 96 well microtiter plates containing 45 μL of t-PA (0.03 μM in assay buffer), then incubated for 30 minutes at 37° C. Spectrozyme t-PA (final concentration of 150 μM) was added to yield a final reaction volume of 70 μL, and 30 minutes later the absorbance at 405 nm was determined in a THERMO-max (Molecular Devices, Palo Alto, Calif.) microplate reader. 100% PAI-1 activity was defined as activity observed at time zero, while 0% PAI-1 activity was defined as that observed in the absence of PAI-1. A standard t-PA activity curve, derived from absorbance values of varying concentrations of t-PA incubated in the absence of PAI-1, was used to determine PAI-1 activity.
Since vitronectin binds and stabilizes the active conformation of PAI-1, the capacity of the Thr-Val-Ala-Ser-Ser-Ser-Thr-Ala-Val-Ile-Val-Ser-Ala-Arg (SEQ ID NO: 1) to inactivate vitronectin-bound PAI-1 was examined. PAI-1 (0.7 μM) was incubated with vitronectin (1.7 μM) for 30 minutes at 37° C., then Thr-Val-Ala-Ser -Ser-Ser-Thr-Ala-Val-Ile-Val-Ser-Ala-Arg (SEQ ID NO: 1) or control peptide (55 μM) was added, and the PAI-1 T1/2 was determined. In the presence of vitronectin, the T1/2 of PAI-1 was prolonged approximately 2-fold (98±18 to 190±12 minutes), similar to previous reports (Declerck et al. 1988).

T1 sequence (P05121 24-402): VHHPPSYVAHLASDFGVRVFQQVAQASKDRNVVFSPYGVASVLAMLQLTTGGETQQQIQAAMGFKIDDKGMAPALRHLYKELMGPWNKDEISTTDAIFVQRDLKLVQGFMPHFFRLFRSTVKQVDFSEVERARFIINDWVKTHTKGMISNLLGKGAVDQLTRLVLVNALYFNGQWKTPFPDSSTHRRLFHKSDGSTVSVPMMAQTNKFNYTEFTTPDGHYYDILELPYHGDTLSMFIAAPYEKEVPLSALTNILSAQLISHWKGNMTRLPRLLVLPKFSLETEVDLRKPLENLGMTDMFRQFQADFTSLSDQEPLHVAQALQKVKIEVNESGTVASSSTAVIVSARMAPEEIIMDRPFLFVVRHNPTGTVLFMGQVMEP

Ac-TVASSSTAVIVSAR [SEQ ID NO: 1, Thr-Val-Ala-Ser-Ser-Ser-Thr-Ala-Val-Ile-Val-Ser-Ala-Arg]
T1/2 of vitronectin-bound PAI-1 (peptide 55 μM): about 120 minutes | T1/2 of vitronectin-bound PAI-1 (peptide 55 μM, listed as P1-P14 peptide): only slowly inactivated | decrease of the half-life of PAI-1 in the presence of vitronectin (from approximately 190 to about 120 minutes): ~40% | fold decrease of the half-life of vitronectin-bound PAI-1 (peptide 55 μM): 1.6 fold

— patent publication US5639726A, “Peptide mediated enhancement of thrombolysis methods and compositions” (The Regents of the University of Michigan, priority 1994, dated 1997)
